The results in this text go back to ChEMBL document CHEMBL3352015, “The binding mechanisms of plasma protein to active compounds in Alismaorientale rhizomes (Alismatis Rhizoma)” (Bioorg Med Chem Lett, 2014).

Assay type in all cases: ADME, cell-free
Series [1] in a line: Plasma protein binding in rat at 1020 ug/ml by ultrafiltration method. Particulars: read-out: PPB (converted); call rule not given here.
Series [2] is described as follows: Plasma protein binding in rat at 816 ug/ml by ultrafiltration method. To be noted: read-out: PPB (converted).
Series [3] can be described thus: Plasma protein binding in rat at 408 ug/ml by ultrafiltration method. Particulars: read-out: PPB (converted).
The nature of series [4]: Binding affinity to Hb in rat plasma at 2.5 x 10' -6 to 15 x 10' -6 mmol/l by fluorescence emission spectroscopy.
The nature of series [5]: Binding affinity to Hb in rat plasma at 1.5 x 10' -5 to 2.8 x 10' -5 mmol/l by CD spectroscopy.
Series [6] can be described thus: Binding affinity to Hb in rat plasma by SDS-PAGE analysis.

As to `CC(=O)O[C@H]([C@@H](O)C[C@@H](C)C1=C2C[C@H](O)[C@H]3[C@@]4(C)CCC(=O)C(C)(C)[C@@H]4CC[C@]3(C)[C@@]2(C)CC1)C(C)(C)O`, the fraction unbound at 1020 ug/ml in series [1] was 0.279. In series [2], the fraction unbound at 816 ug/ml is 0.29. The fraction unbound at 408 ug/ml in series [3] was 0.3. The outcome in series [4], in series [5] and in series [6] was Active.
